From patent publication US8557864B2, “Agent having neurotrophic factor-like activity” (Nagoya Industrial Science Research Institute, priority 2007, dated 2013)

How the values were obtained:
[1] = system: mice under chronic mild stress; test: Tail suspension test, compound given at the same time as stress; assay type: in vivo; conditions: 20, 100 and 500 μg/kg intraperitoneally once per day with stress; stressed 3 week- and 1 week-administration groups
Experimental: Mice under established chronic mild stress (hereinafter referred to as “stress”) were used for a depression and anxiety disorder-like model animal. Stress was applied as follows. 7-week-old male ddY strain mice fed in one cage for 4 mice were used and first subjected to forced swimming for 15 minutes. Then, the mice were fed in a sloped cage for 2 days, and then rested in a normal cage for 1 day. Then, the mice were fed in a dirt cage moisturized with 200 mL of water for 1 day and then rested in a normal cage for 1 day. Then, the mice were fed in a rotational cage that rotated at 180 rpm for 1 day, and then rested in a normal cage for 1 day. […] For 0 μg/kg administration examples of controls, a phosphoric acid buffer containing 0.1% DMSO (controls were expressed as “PBS” or “0 μg/kg” in the figure shown below) was administered in an amount of 0.25 mL to each of a stressed example and a non-stressed example. […]
A site of 1 cm from the tip of the tail of a mouse was grasped by a hand, being apart from a floor from 10 cm, and an immobility time in suspension for 6 minutes was measured for 2 hours. Since the immobility time prolongs when the mouse has a depressive symptom (condition), a level of the depressive symptom (condition) can be evaluated from the length of the immobility time. […]

[2] = system: mice; test: Voluntary alternation behavior test (Y-maze test) of mice administered with trimethyltin; assay type: in vivo
Experimental: The voluntary alternation behavior test (Y-maze test) is one kind of a behavior test using a Y-shaped maze constituted with three arms. First, a mouse is placed on the tip of one arm out of the three arms, letting the mouse freely explore in the maze over 8 minutes, and arms where the mouse transferred are recorded in order. Then, the number of times of transferring to each arm (total arm selection number (total arm entries)) and the number of sequentially selecting three different arms (number of alternation behavior (number of spontaneous behavior)) are counted.
Trimethyltin (hereinafter referred to as “TMT”) is an organic metal compound having neurotoxicity, and acute nerve cell death is cased particularly in granular nerve cells of the hippocampus dentate gyrus, which thus affects memory and learning abilities of a mouse.
The voluntary alternation tests (Y-maze tests) were performed on 1) test groups to which the compound 8 was singly administered and 2) test groups to which TMT and the compound 8 were administered. In the test groups to which the compound 8 was singly administered, the compound 8 was dissolved in 0.1% DMSO to adjust a concentration so as to have each of the doses of 100 and 500 μg/kg and intraperitoneally injected to 6 mice in every administration example each in a dose of 0.25 mL. In 0 μg/kg weight administration examples of controls, 0.25 mL of a phosphoric acid buffer containing 0.1% DMSO was intraperitoneally injected in each time. The voluntary alternation tests (Y-maze tests) were performed on each of the administration groups after the elapse of 2 hours from intraperitoneal administration. In the test group in which TMT and the compound 8 were administered, TMT (2 mg/kg weight) was intraperitoneally administered to a mouse, and the compound 8 was intraperitoneally administered in the same manner as the test groups in which the compound 8 was singly administered after 2 days have passed, and the voluntary alternation test (Y-maze test) was performed after the elapse of 2 hours. FIG. 32 show the results. Significance tests were performed in a Turkey's test (*, ##) and a Student's t-test (++). “DAEE” denotes the compound 8.

CCCCCCC/C=C/C(=O)OCC [Compound 8, trans-2-decenoic acid ethyl ester]
immobility time, stressed vs non-stressed example [1]: no significant difference
total arm entries (motor function) ([2]; 100 and 500 μg/kg intraperitoneally, 2 hours before test, with or without TMT): no difference
voluntary alternation behavior, compound singly administered ([2]; 100 and 500 μg/kg intraperitoneally, test after 2 hours): significantly increased
voluntary alternation behavior in TMT-treated mice ([2]; TMT 2 mg/kg intraperitoneally, compound 8 after 2 days, test after 2 hours): suppressed decrease
